# Experimental data from patent US5459256A, “Lipophilic, aminohydrolase-activated prodrugs” (priority 1991, dated 1995).
# Like-named read-outs stand apart in the source and are kept apart here.
# How the values were obtained:
# [1] = molecular target: T1, adenosine deaminase (adenosine aminohydrolase, EC 3.5.4.4) (Bos taurus, UniProt P56658); assay: Enzymatic deamination by adenosine deaminase (HPLC); details: for half-life at 50 µM: bovine, adenosine deaminase
# T1 sequence (P56658 1-363): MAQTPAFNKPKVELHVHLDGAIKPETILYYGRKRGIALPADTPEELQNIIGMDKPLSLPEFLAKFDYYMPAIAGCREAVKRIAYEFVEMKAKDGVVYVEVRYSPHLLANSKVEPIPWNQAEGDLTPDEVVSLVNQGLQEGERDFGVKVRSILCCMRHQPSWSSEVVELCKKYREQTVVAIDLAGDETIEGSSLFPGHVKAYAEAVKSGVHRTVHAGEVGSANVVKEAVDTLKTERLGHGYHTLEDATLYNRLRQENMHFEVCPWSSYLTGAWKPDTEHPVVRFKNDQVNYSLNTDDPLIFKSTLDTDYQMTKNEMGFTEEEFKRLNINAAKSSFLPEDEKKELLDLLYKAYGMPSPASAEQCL
# Method: FIG. 1. Deamination of dideoxyadenosine analogues by adenosine deaminase. Hydrolysis kinetics and 2'-F-dd-ara-I formation during the incubation of 50 μM N^6 -CH3 -2'-F-dd-ara-A (1f) with 0.7 units/mL of adenosine deaminase at 37° C. A unit of adenosine deaminase is the amount of enzyme which hydrolyzes a standard substrate (e.g., adenosine) at the rate of 1.0 μmole/min at 25° C. and pH 7.5. […] Insert: Adenosine deaminase hydrolysis kinetics for 50 μM ddA and 2'-F-dd-ara-A. The hydrolysis curve for ddA has been extrapolated from kinetics obtained with 0.07 units/mL of adenosine deaminase under identical conditions.
# A 50 μl aliquot of a 10 mg/ml suspension of adenosine deaminase (adenosine aminohydrolase, EC 3.5.4.4) from calf intestinal mucosa was centrifuged at 600×g for 3 min. The residue remaining after removal of the (NH4)2 SO4 supernatant was dissolved in 0.5 ml pH 7.4 tris(hydroxymethyl)-aminomethane (Tris) buffer to give an enzyme solution of 1 mg/ml (274 units/ml). […] A pH 7.4 buffer was prepared by adjusting 0.01M Tris to pH 7.4 with 0.5N HCl, The 1.0 HCl , HPLC-grade acetonitrile, monobasic potassium phosphate, sodium hydroxide and ultrapure Tris were all commercially available and were used without further purification.
# Enzymatic Deamination of Adenosine Analogues. […] A 50 μL aliquot of substrate solution was diluted with 0.95 ml 0.01M Tris buffer in a 1.5-mL Eppendorf tube and equilibrated at 37° C. in a Dubnoff metabolic shaking incubator. Reaction was initiated by addition of 2.5 μL of adenosine deaminase solution (0.7 unit). At specified time intervals, a 50 μL aliquot of the reaction mixture was withdrawn and quenched by mixing with 0.45 mL cold 2 μM 2'-deoxycoformycin. This diluted sample was ultrafiltered to remove enzyme in a Centrifree Micropartition unit by centrifugation at 600×g at 4° C. in a high speed refrigerated centrifuge. The decrease in substrate concentration was monitored by HPLC analysis of the resultant ultrafiltrate (see below). The ability of 2'-deoxycoformycin to inhibit deamination under the above conditions was evaluated by adding 2 μL of 1.0 mM inhibitor to diluted substrate solutions at the time of equilibration. Reaction, sampling and analysis were carried out as above. […] Initial hydrolysis rates for each substrate concentration were measured through linear least-squares curve fitting of the concentration versus time data for reaction of the first 10% of substrate. KM and vmax values for each substrate were then determined from a graphical lineweaver-Burke plot of these initial rates (FIG. 1).
# HPLC Analysis of Dideoxypurine Nucleosides.
# Concentrations of dideoxynucleosides were measured by the HPLC analysis of 100 μL aliquots of ultrafiltered samples. A 4.6×250 mm 5-μm Ultrasphere-ODS column, protected by a Waters guard column packed with 37-50 μm Vydac 201SC, was eluted with 10-20% CH3 CN in 0.01M pH 7.0 phosphate buffer at a flow rate of 1.0 mL/min. Dideoxynucleosides and deamination products were detected at the appropriate wavelength of maximum absorption with a Gilson 116 variable wavelength detector. Peak identity was determined from coincidence of retention times with standards and by comparison of on-the-fly UV spectra obtained with a Perkin-Elmer LC-235 diode array detector. Peak areas and peak heights were measured simultaneously on a Spectra-Physics SP4200 computing integrator.
# ADA = details: vs ddA, determined previously, slightly different conditions; cited from earlier work
# CD4^+ ATH8 cells = assay: Toxicity on ATH8 target cells (% toxicity, dye exclusion); type: cell-based
# Method: (§1) HIV Cytopathic Effect Inhibition Assay.
# (§2) The HIV cytopathic effect inhibition assay was performed as previously described. […] On day 8 in culture, the viable cells were counted by using the dye exclusion method. All compounds, including inactives, were evaluated a minimum of two times in separate experiments. Data reported in Table II are from representative tests. The % protection against the virus was determined by the following formula: 100 times [(the number of viable cells exposed to HIV-1 and cultured in the presence of the compound minus the number of viable cells exposed to HIV-1 and cultured in the absence of compound) divided by (the number of viable cells cultured alone minus the number of viable cells exposed to HIV-1 and cultured in the absence of the compound)]. The % toxicity of a compound on the target cells was determined by the following formula: 100 times [1 minus (the number of total viable cells cultured in the presence of the compound divided by the number of total viable cells cultured alone)]. Calculated percentages equal to or less than zero are expressed as 0%.
# [2] = test system: HIV-1/IIIB (CD4^+ ATH8 cells); assay: HIV cytopathic effect inhibition assay in ATH8 cells (% protection); type: cell-based
# Method: as §1
# The HIV cytopathic effect inhibition assay was performed as previously described. (Mitsuya, H. & Broder, S. Proc. Nat. Acad. Sci. USA 1986, 83, 1911) Briefly, 200,000 target CD4^+ ATH8 cells were exposed to cell-free HIV-1/IIIB at a dose of 43 (or 1087 for compound 1g) TCID50 (50% tissue culture infectious dose) for 1 h, resuspended in 2 ml of fresh culture media containing interleukin 2, and cultured at 37° C. with or without test compounds in 5% CO2 -containing humidified air. On day 8 in culture, the viable cells were counted by using the dye exclusion method. All compounds, including inactives, were evaluated a minimum of two times in separate experiments. Data reported in Table II are from representative tests. The % protection against the virus was determined by the following formula: 100 times [(the number of viable cells exposed to HIV-1 and cultured in the presence of the compound minus the number of viable cells exposed to HIV-1 and cultured in the absence of compound) divided by (the number of viable cells cultured alone minus the number of viable cells exposed to HIV-1 and cultured in the absence of the compound)]. The % toxicity of a compound on the target cells was determined by the following formula: 100 times [1 minus (the number of total viable cells cultured in the presence of the compound divided by the number of total viable cells cultured alone)]. Calculated percentages equal to or less than zero are expressed as 0%.
# ^a ATH8 cells were exposed to HIV1/IIIB per cell for 1 hr and
# cultured in the presence of various concentrations of each compound. On
# day 8, the total viable cells were counted. Orders of numbers in the
# column for concentrations correspond to the orders of numbers in other
# [3] = Octanol-water partition coefficient, microscale shake-flask; details: octanol/ph 7.0 buffer
# Method: Measurement of Octanol-Water Partition Coefficients.
# n-Octanol-water partition coefficients (P) were determined by a microscale shake-flask procedure, (Ford, H. et al Abstracts of Papers, 200th National Meeting of the American Chemical Society, Washington, D.C.; American Chemical Society: Washington, D.C., 1990; CARB 13) which was modification of an earlier method (Nahum, A. & Horvath, C. J. Chromatogr. 1980, 192, 315). A 20 μL aliquot of a 0.5 mg/mL DMSO solution of the dideoxynucleoside was dissolved in 1.0 mL of octanol-saturated, pH 7.0, 0.01M potassium phosphate buffer. This was mixed thoroughly with 1.0 ml of buffer-saturated n-octanol in a 2-mL Mixxor apparatus at 24°-26° C. and then allowed to stand for 15 min. The phases were separated, centrifuged at 600×g for 5 min, and the relative concentration of sample in each phase determined by HPLC analysis of a 50 μl aliquot. The partition coefficient was calculated by dividing the absolute area of the appropriate integrated peak from the octanol phase by that of the buffer phase (Table I).
# Octanol/pH 7.0 buffer partition coefficients were determined using a newly developed microscale method. […] The addition of a methyl group normally increases the log P value of a compound by about 0.5.
# [4] = test system: human immunodeficiency virus (HIV); details: background statement; cited from earlier work
# [5] = Toxicity on ATH8 target cells (% toxicity, dye exclusion); type: cell-based; details: human, ath8 cells, 10 μM
# Method: as §1, §2
# [6] = in vivo; cited from earlier work
molecule,measurement,setting,value
"Nc1ncnc2c1ncn2[C@@H]1O[C@H](CO)C[C@@H]1F [Compound 1a, 2', 3'-dideoxy-2'-fluoroarabinosyladenine, reference compound]",half-life at 50 µM,[1],1.33 min
same,half-life at 50 µM,[1]; t1/2 of hydrolysis by adenosine deaminase,1.33 min
same,vmax,[1]; pH 7.4 and 37° C.,2.3 × 10^-1 μmol/min/U
same,"hydrolysis by ADA, times slower than ddA","[1]; vs ddA, 50 μM substrate",17 times slower
same,"hydrolysis by ADA, times slower than ddA",ADA,ca. 10 times slower
same,toxicity in the presence of dCF (in words),CD4^+ ATH8 cells,appeared to be potentiated
same,% Toxicity,"CD4^+ ATH8 cells; human, 11520 min",11%
same,anti-HIV activity with supplementary ADA (in words),"[2]; ATH8 cells, ADA (0.7 U/mL) added",did not change its activity
same,anti-HIV activity in the presence of dCF (in words),"[2]; ATH8 cells, dCF added",no important changes in the protection
"O=c1[nH]cnc2c1ncn2[C@@H]1O[C@H](CO)C[C@@H]1F [Compound 1b, 2', 3'-dideoxy-2'-fluoroarabinosylhypoxanthine, reference compound]",logD,[3]; pH 7,-1.21 ± 0.02
same,deamination product / product formation (in words),"[1]; 0.7 U/mL ADA, 37° C.",the rate of formation of 1b corresponded to the rate of disappearance of 1f
same,in vitro activity against HIV (in words),[4],known active inosine analogue
"Nc1ncnc2c1ncn2[C@H]1CC[C@@H](CO)O1 [ddA, dideoxyadenosine, reference compound]",logD,"[3]; pH 7, Log P",-0.29 ± 0.01
same,t1/2 of hydrolysis by adenosine deaminase,"[1]; 50 μM, extrapolated from 0.07 units/mL ADA to 0.7 units/mL, 37° C.",0.083 min
same,half-life at 50 µM,[1],0.0833 min
same,toxicity in the presence of dCF (in words),"CD4^+ ATH8 cells; ATH8 cells, dCF added",appeared to be potentiated
same,"cytotoxicity at 192 h, 10 µM",[5]; with dCF (5 μm),22%
same,"cytotoxicity at 192 h, 10 µM",[5]; without dCF,0%
same,% Protection,"[2]; 10 μM, with dCF (5 μm), 11520 min",86%
same,inhibition at 10 µM,"[2]; Human immunodeficiency virus 1, IIIB, ATH-8, 192 h, 10 μM, without dCF",100%
"Nc1ccn([C@H]2CC[C@@H](CO)O2)c(=O)n1 [ddC, dideoxycytidine, reference compound]",logD,"[3]; pH 7, Log P",-1.33 ± 0.01
same,CNS entry (in words),[6],failure of ddC to achieve significant CNS levels
Cc1ccc(C(=O)Nc2ccc(S(=O)(=O)O)c3cc(S(=O)(=O)O)cc(S(=O)(=O)O)c23)cc1NC(=O)c1cccc(NC(=O)Nc2cccc(C(=O)Nc3cc(C(=O)Nc4ccc(S(=O)(=O)O)c5cc(S(=O)(=O)O)cc(S(=O)(=O)O)c45)ccc3C)c2)c1 [suramin],HIV replication in presence of compound (in words),[4],HIV replication is considerably slower
antimoniotungstate,HIV replication in presence of compound (in words),[4],HIV replication is considerably slower
